Measurements: US20230348424A1, “HETEROCYCLIC COMPOUNDS AND METHODS OF USE” (Schrödinger, Inc., priority 2022, published 2023)

Target: SOS1:KRAS (G12C) interaction (Homo sapiens (Human), UniProt Q07889)
Test: SOS1 KRas(G12C) FRET Assay
Format: binding
Details: 0.5 nM His10-SOS1 (res. 564-1049), 2.5 nM GST-KRAS G12C (res. 1-169), 2 hrs at RT
Procedure, shortened: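 GST-KRAS G12C (res. 1-169) at 2.5 nM and His10-SOS1 (res. 564-1049) at 0.5 nM, final, in PBS with 0.1% BSA, 5 mM MgCl2, 100 mM KF, 5 mM DTT and 0.5% DMSO. After 2 h at RT, FRET read at 665/615 nm and normalized to DMSO and no-SOS1 controls. IC50 by non-linear regression.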

SOS1:KRAS (G12C) interaction, sequence (Q07889 564-1049, stated change not applied): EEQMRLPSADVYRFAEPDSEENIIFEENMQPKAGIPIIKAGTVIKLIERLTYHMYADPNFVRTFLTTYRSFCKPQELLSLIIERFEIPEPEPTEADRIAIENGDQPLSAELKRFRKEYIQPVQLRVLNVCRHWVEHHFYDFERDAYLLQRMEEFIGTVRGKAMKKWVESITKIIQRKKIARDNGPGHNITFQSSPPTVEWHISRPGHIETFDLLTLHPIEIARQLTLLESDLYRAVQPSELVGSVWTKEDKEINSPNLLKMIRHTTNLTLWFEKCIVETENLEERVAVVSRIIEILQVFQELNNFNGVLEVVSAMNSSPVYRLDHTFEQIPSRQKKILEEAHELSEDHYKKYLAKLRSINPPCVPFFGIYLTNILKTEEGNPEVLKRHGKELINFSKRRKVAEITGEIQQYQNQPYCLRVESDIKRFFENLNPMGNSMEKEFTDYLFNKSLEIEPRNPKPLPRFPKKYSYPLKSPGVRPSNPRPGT

Compound | IC50 [nM]
C[C@@H](NC(=O)c1cn(C23CC(C2)C3)c(=O)cc1NC1CCN(C)CC1)c1cccc(C(F)F)c1F [Example 217, (R)-1-(bicyclo[1.1.1]pentan-1-yl)-N-(1-(3-(difluoromethyl)-2-fluorophenyl)ethyl)-4-((1-methylpiperidin-4-yl)amino)-6-oxo-1,6-dihydropyridine-3-carboxamide] | 7.4
Cc1c(C#N)cccc1[C@@H](C)NC(=O)c1cn([C@H]2[C@H](C)C2(F)F)c(=O)cc1N[C@H]1[C@@H]2CN(C)C[C@@H]21 (single isomer, unassigned) [Example 194] | 19.3
Cc1c([C@@H](C)NC(=O)c2cn(C3CCOCC3)c(=O)c(C)c2NC2CCN(C)CC2)cccc1C(F)(F)F [Example 19, (R)-5-methyl-N-(1-(2-methyl-3-(trifluoromethyl)phenyl)ethyl)-4-((1-methylpiperidin-4-yl)amino)-6-oxo-1-(tetrahydro-2H-pyran-4-yl)-1,6-dihydropyridine-3-carboxamide] | 347
COc1c(NC2CCN(C)CC2)c(C(=O)N[C@H](C)c2cccc(C(F)(F)F)c2C)cn(C2CCOCC2)c1=O [Example 18, (R)-5-methoxy-N-(1-(2-methyl-3-(trifluoromethyl)phenyl)ethyl)-4-((1-methylpiperidin-4-yl)amino)-6-oxo-1-(tetrahydro-2H-pyran-4-yl)-1,6-dihydropyridine-3-carboxamide] | 77.8
CN1C[C@@H]2[C@H](C1)[C@H]2Nc1cc(=O)n(C2(C(F)F)CC2)cc1C(=O)N[C@@H](c1cccc(C(F)F)c1F)C(F)(F)F (single isomer, unassigned) [Example 275] | 361
C[C@@H](NC(=O)c1cn(C2CCC2)c(=O)cc1N[C@H]1[C@@H]2CN(C)C[C@@H]21)c1cccc(S(F)(F)(F)(F)F)c1 [Example 163, 1-cyclobutyl-4-(((1R,5S,6s)-3-methyl-3-azabicyclo[3.1.0]hexan-6-yl)amino)-6-oxo-N-((R)-1-(3-(pentafluoro-16-sulfaneyl)phenyl)ethyl)-1,6-dihydropyridine-3-carboxamide] | 29.3
C[C@@H](NC(=O)c1cn(C2(C(F)F)CC2)c(=O)cc1N[C@@]12C[C@@H]1CN(C)C2)c1cccc(C(F)F)c1F [Example 228, N-((R)-1-(3-(difluoromethyl)-2-fluorophenyl)ethyl)-1-(1-(difluoromethyl)cyclopropyl)-4-(((1S,5R)-3-methyl-3-azabicyclo[3.1.0]hexan-1-yl)amino)-6-oxo-1,6-dihydropyridine-3-carboxamide] | 64.3
CN1C[C@@H]2[C@H](C1)[C@H]2Nc1cc(=O)n(C2(C(F)F)CC2)cc1C(=O)N[C@@H](c1cccc(C(F)F)c1F)C(F)F [Example 158, N-((S)-1-(3-(difluoromethyl)-2-fluorophenyl)-2,2-difluoroethyl)-1-(1-(difluoromethyl)cyclopropyl)-4-(((1R,5S,6s)-3-methyl-3-azabicyclo[3.1.0]hexan-6-yl)amino)-6-oxo-1,6-dihydropyridine-3-carboxamide] | 82
C[C@@H](NC(=O)c1cn([C@]2(C(F)(F)F)CCOC2)c(=O)cc1NC1CCN(C)CC1)c1cccc(C(F)F)c1F [Example 233, N-((R)-1-(3-(difluoromethyl)-2-fluorophenyl)ethyl)-4-((1-methylpiperidin-4-yl)amino)-6-oxo-1-((R)-3-(trifluoromethyl)tetrahydrofuran-3-yl)-1,6-dihydropyridine-3-carboxamide] | 4.8
Cc1c([C@@H](C)NC(=O)c2cn(C3CCOCC3)c(=O)cc2N[C@H]2C[C@@H](N(C)C)C2)cccc1C(F)(F)F [Example 27] | 21.8
C[C@@H](NC(=O)c1cn(C2(C(F)F)CC2)c(=O)cc1N[C@@H]1C[C@H]2C[C@@H]1CN2C)c1cccc(C(F)F)c1F (single isomer, unassigned) [Example 239] | 21.5
Cc1c([C@@H](C)NC(=O)c2cn(C3CCOCC3)c(=O)cc2NCC2(F)CN(C)C2)cccc1C(F)(F)F [Example 30, (R)-4-(((3-fluoro-1-methylazetidin-3-yl)methyl)amino)-N-(1-(2-methyl-3-(trifluoromethyl)phenyl)ethyl)-6-oxo-1-(tetrahydro-2H-pyran-4-yl)-1,6-dihydropyridine-3-carboxamide] | 36.3
C[C@@H](NC(=O)c1cn(C2CCC2)c(=O)cc1N[C@@H]1[C@@H]2CC[C@H]1CN(C)C2)c1cccc(C(F)F)c1F (single isomer, unassigned) [Example 215] | 68.2
C[C@@H](NC(=O)c1cn(C2(C(F)F)CC2)c(=O)cc1N[C@@H]1[C@@H]2CC[C@H]1CNC2)c1cccc(C(F)F)c1F (single isomer, unassigned) [Example 281] | 18.4
Cc1cc([C@@H](C)NC(=O)c2cn(C3(C(F)F)CC3)c(=O)cc2NC2CCN(C)CC2)cc(C(F)(F)F)n1 (single isomer, unassigned) [Example 171] | 1250
C[C@@H](NC(=O)c1cn(C2(C(F)F)CC2)c(=O)cc1N[C@@H]1CN2CCC1(F)CC2)c1cccc(C(F)F)c1F [Example 187, N-((R)-1-(3-(difluoromethyl)-2-fluorophenyl)ethyl)-1-(1-(difluoromethyl)cyclopropyl)-4-(((R)-4-fluoroquinuclidin-3-yl)amino)-6-oxo-1,6-dihydropyridine-3-carboxamide] | 22.3
C[C@@H](NC(=O)c1cn([C@@H]2C[C@H]2C2CC2)c(=O)cc1N[C@H]1[C@@H]2CN(C)C[C@@H]21)c1cccc(C(F)F)c1F [Example 71, 1-((1S,2R)-[1,1′-bi(cyclopropan)]-2-yl)-N-((R)-1-(3-(difluoromethyl)-2-fluorophenyl)ethyl)-4-(((1R5S,6s)-3-methyl-3-azabicyclo[3.1.0]hexan-6-yl)amino)-6-oxo-1,6-dihydropyridine-3-carboxamide] | 21.9
Cc1cc([C@H](C)NC(=O)c2cn(C3(C(F)F)CC3)c(=O)cc2NC2CCN(C)CC2)cc(C(F)(F)F)n1 (single isomer, unassigned) [Example 172] | > 10000
C[C@@H](NC(=O)c1cn(C2CC23CCC(F)(F)CC3)c(=O)cc1N[C@H]1[C@@H]2CN(C)C[C@@H]21)c1cccc(C(F)F)c1F (stereo partly drawn) [Example 242, N-((R)-1-(3-(difluoromethyl)-2-fluorophenyl)ethyl)-1-(6,6-difluorospiro[2.5]octan-1-yl)-4-(((1R,5S,6s)-3-methyl-3-azabicyclo[3.1.0]hexan-6-yl)amino)-6-oxo-1,6-dihydropyridine-3-carboxamide] | 11.6
[2H]C([2H])([2H])N1C[C@@H]2[C@H](C1)[C@H]2Nc1cc(=O)n(C2(C(F)F)CC2)cc1C(=O)N[C@H](C)c1cccc(C(F)F)c1F [Example 57, N-((R)-1-(3-(difluoromethyl)-2-fluorophenyl)ethyl)-1-(1-(difluoromethyl)cyclopropyl)-4-(((1R,5S,6s)-3-(methyl-d3)-3-azabicyclo[3.1.0]hexan-6-yl)amino)-6-oxo-1,6-dihydropyridine-3-carboxamide] | 28.2
C[C@@H](NC(=O)c1cn(C2(C(F)F)CCC2)c(=O)cc1NC1CCN(C)CC1)c1cccc(C(F)F)c1F [Example 76, (R)-N-(1-(3-(difluoromethyl)-2-fluorophenyl)ethyl)-1-(1-(difluoromethyl)cyclobutyl)-4-((1-methylpiperidin-4-yl)amino)-6-oxo-1,6-dihydropyridine-3-carboxamide] | 12.5
